The text below walks through data of US20090253743A1, “COMPOSITIONS OF TOLPERISONE” (Avigen, Inc., priority 2007, published 2009).

Counter-ions that a name gives are not always drawn.

What all share (type): physicochemical
Data set [1] in a line: HPLC-MS/MS analysis of 4-MMPPO content in tolperisone compositions. The note with it: drug lot (API) used in the tablet. As to the method:
Tolperisone compositions were obtained from various commercial sources and analyzed for 4-MMPPO content by HPLC-MS/MS.
All samples used in the analytical sequence were prepared for analysis as follows. Sample were homogenized if necessary (e.g., tablets) and weighed. For each tolperisone sample, approximately 20 mg of sample was added into a 20 mL flask. 20 mL of 50 mM HCl in MeOH was added to the flask, which was then placed in an ultrasonic bath for about 5 minutes. The contents of the flask were mixed on a vortexer for about 20 seconds. In instances in which the tolperisone sample had initially been in tablet form, the solution was then centrifuged at 4000 rpm for 2 minutes. 200 μL of the sample was then transferred into a small conical centrifuge vial. 20 μL of an internal standard solution containing deuterated 4-MMPPO, 200 μL of buffer at pH 1, and 0.4 mL of diisopropyl ether (DIPE) were added to the vial. The sample was then extracted by vortexing with a DVX-2500 multi-tube vortexer (2100 rpm) for about 2 minutes (cycle: 5 seconds run, 1 second pause time) and centrifugation (phase separation) at 4000 rpm for 2 minutes. 150 μL of 50 mM HCl in MeOH/DMSO (½) was added into empty designated conical autosampler vials. After centrifugation, 100 μL of supernatant was transferred into these conical autosampler vials. The vials were crimped and vortexed with a DVX-2500 multi-tube vortexer (2100 rpm) for about 1 minute. 7 μL of the prepared sample was then injected immediately into an HPLC-MS/MS system or the sample was stored at a temperature below −20° C. until analysis. The chromatography conditions and mass spectrometry parameters used for analysis of 4-MMPPO are shown below in Tables 1 and 2, respectively.
Lots of tolperisone were obtained from manufacturers A and B, as were the final manufactured tablet formulations. Analyses were carried out as described in Example 1 to determine 4-MMPPO levels in both drug lots and final manufactured formulations.

Data set [2] is described as follows: Stability studies of 4-MMPPO / tolperisone HCl solutions (liquid-liquid extraction, HPLC-MS/MS). Here is the method: The analytical method employed utilized liquid-liquid extraction and HPLC separation on a C18-column with MS/MS detection and internal standardization.
Test solution: 50 mM HCl in methanol containing 40 mg per 200 μL of tolperisone HCl (containing 4-MMPPO as an impurity)
Samples were prepared for analysis generally as follows. 200 μL of IS working solution was added to the dry weighed bulk material or to the 20 μL aliquots. The samples were vortexed, followed by addition of 200 μL of buffer solution. 0.40 mL of DIPE (diisopropyl ether) was then added, followed by extraction via vortexing, and phase separation via centrifugation. About 250 μL of supernatant solution was then transferred into each 5 mL conical centrifuge vial, followed by addition of 200 μL of buffer solution. The major portion of tolperisone was then re-extracted into the watery phase by vortexing, followed by phase separation by centrifugation. 50 μL of centrifugation supernatant was then transferred to each auto sample vial containing injection solution (75 μL of 50 mM HCl in DMSO/MeOH 2/1). Samples were capped (crimped) and vortexed, followed by injection of 7 μL sample into the HPLC-MS/MS system for analysis.
During stability studies for a calibration range from 1-200 ppm, various solutions: a) 4-MMPPO in tolperisone free solution (“reference solution”), b) tolperisone HCl solution (default concentration of 10 mg/mL) without spiking of any 4-MMPPO (“test solution”), and c) tolperisone HCl solution (default concentration of 10 mg/mL) spiked with 4-MMPPO (“spiked test solution”) were assessed under the following storage conditions: (i) for three freeze thaw cycles prior to sample preparation for analysis, (ii) at bench top temperature for 4 hours, and (iii) at auto sampler conditions for 12 hours after sample preparation for analysis. […] Additionally, 4-MMPPO was stable at −70° C. for 2 months prior to sample preparation for analysis.
During stability studies for a concentration range from 0.05-25 ppm, various solutions: a) 4-MMPPO in tolperisone free solution (“reference solution”), b) tolperisone HCl solution (default concentration of 200 mg/mL) without spiking of any 4-MMPPO (“test solution”), and c) tolperisone HCl solution (default concentration of 200 mg/mL) spiked with 4-MMPPO (“spiked test solution”) were assessed under the following storage conditions: (i) at bench top temperature for 2 hours prior to sample preparation for analysis, and (ii) at auto sampler conditions for 14 hours after sample preparation for analysis.

The nature of data set [3]: HPLC-MS/MS analysis of 4-MMPPO content in tolperisone compositions.
Setting [4] is: calibration range 1-200 ppm, tolperisone HCl 10 mg/mL, each of: three freeze thaw cycles, bench top 4 hours, auto sampler 12 hours.
Where [5] appears, read: range 0.05-25 ppm, tolperisone HCl 200 mg/mL, auto sampler conditions 14 hours after sample preparation.

Regarding `Cc1ccc(C(=O)C(C)CN2CCCCC2)cc1` (centres unmarked) [SB0068, tolperisone], the “[4-MMPPO in Drug Lot or API], ppm” value in data set [1] is listed as 39 ppm.

On to `Cc1ccc(C(=O)C(C)CN2CCCCC2)cc1` (centres unmarked) [SD0108, tolperisone], for which, in data set [1], the “[4-MMPPO in Drug Lot or API], ppm” value is recorded as 14 ppm.

Take `Cc1ccc(C(=O)C(C)CN2CCCCC2)cc1` (centres unmarked) [SE0107, tolperisone]: the “[4-MMPPO in Drug Lot or API], ppm” value in data set [1] came out at 20 ppm.

As to `Cc1ccc(C(=O)C(C)CN2CCCCC2)cc1` (centres unmarked) [SF0191, tolperisone], in data set [1], the “[4-MMPPO in Drug Lot or API], ppm” value is 22 ppm.

On to `Cc1ccc(C(=O)C(C)CN2CCCCC2)cc1` (centres unmarked) [SFO192, tolperisone], for which the “[4-MMPPO in Drug Lot or API], ppm” value in data set [1] and in data set [1] (listed as SF0192) was 21 ppm throughout.

For the molecule `C=C(C)C(=O)c1ccc(C)cc1` [Sample 4-MMPPO, 2-methyl-1-(4-methylphenyl)-propenone], the “4-MMPPO concentration on storage of solution” value in data set [2] (setting [4]) and in data set [2] (setting [5]) was “constant 4-MMPPO concentration” in each case. Also, in data set [2] (−70° C. for 2 months), the “stability prior to sample preparation” value is “stable”.

Take `Cc1ccc(C(=O)C(C)CN2CCCCC2)cc1` (centres unmarked) [tolperisone HCl, tolperisone hydrochloride]: the “4-MMPPO concentration on storage of solution” value is “slight increase” in data set [2] (setting [4]); “constant 4-MMPPO concentration” in data set [2] (setting [5]); “slight increase” in data set [2] (range 0.05-25 ppm, tolperisone HCl 200 mg/mL, bench top temperature 2 hours prior to sample preparation). The “level of 4-MMPPO” value in data set [3] (recrystallized, washed with MTBE saturated with citric acid) is “below 1 ppm”.

Consider `Cc1ccc(C(=O)C(C)CN2CCCCC2)cc1` (centres unmarked) [tolperisone, 2-methyl-1-(4-methylphenyl)-3-(-piperidinyl)-1-propanone], for which the “4-MMPPO in recrystallized tolperisone” value in data set [3] (Example 2, single standard recrystallization from 2-butanone/isopropanol, dried at 45-85° C.) is 0.14 % by weight; in data set [3] (Example 2, subsequent production batches), less than 0.05%. The “4-MMPPO levels in the final recrystallized tolperisone product” value in data set [3] (Example 5, 1% (v/v) concentrated aqueous HCl added to the recrystallization mixture) is listed as “below 6.6 ppm”. Further, the stability during recrystallization entry in data set [3] (in the presence of acid) is given as “enhanced stability”.
